Reference: US20200375980A1, “VETERINARY ANTIPROLACTINIC COMPOSITION” (CEVA SANTE ANIMALE, priority 2018, published 2020)

System: Primiparous sows
Assay: Proof of concept study, WOI (weaning to oestrus interval) in primiparous sows
Format: in vivo, Sus scrofa domesticus
Description: All sows included in this study were recruited from a single farm having an historical mean of WOI of 5.4 days, and a percentage of delayed oestrus (8 days) of 7.9%. Weaning was set after about 3 weeks of lactation. Primiparous sows (with normal health status and normal farrowing) were allocated into three groups: Cab_0 (n=19 sows): 5.6 μg/kg of cabergoline by intramuscular injection at weaning day (day 0) in sows, i.e. at the end of lactation, without suckling piglets. Cab_2 (n=30 sows): 5.6 μg/kg of cabergoline by intramuscular injection 2 days before weaning (day-2) in sows, i.e. lactation still pending with suckling piglets. Negative control group (n=29 sows): equivalent dose/volume of a ‘true’ placebo by intramuscular injection at Day-2 and day 0.

[1] = group Cab_0: 5.6 μg/kg intramuscular at weaning day (day 0)
[2] = group Cab_0: 5.6 μg/kg intramuscular at weaning day (day 0), n=19 sows
[3] = group Cab_2: 5.6 μg/kg intramuscular 2 days before weaning (day-2), n=30 sows

For `C=CCN1C[C@H](C(=O)N(CCCN(C)C)C(=O)NCC)C[C@@H]2c3cccc4[nH]cc(c34)C[C@H]21` [cabergoline, 1-[(6-allylergolin-8ß-yl)-carbonyl]-1-[3-(dimethylamino)propyl]-3-ethylurea], the “impact of the treatment on fertility” value (all sows diagnosed positively pregnant after artificial insemination following oestrus detection, Cab_0 and Cab_2 groups) was “no negative impact”, the “sows exhibiting delayed oestrus (after or equal 8 days), number of sows per group” value [1] was 1/19 and the “sows exhibiting delayed oestrus (after or equal 8 days), percentage” value [1] was 5.3%. The “number of sows in heats, WOI 8-14 days” value [2] was 1, the “number of sows in heats, WOI 3 days” value [2] was 1 and the “number of sows in heats, WOI 4 days” value [2] was 6. For the same molecule, the “number of sows in heats, WOI 5 days” value [2] was 8, the “number of sows in heats, WOI 6 days” value [2] was 2 and the “number of sows in heats, WOI 7 days” value [2] was 1. The “delayed oestrus (after or equal 8 days)” value (group Cab_2: 5.6 μg/kg intramuscular 2 days before weaning (day-2)) was “no delayed oestrus”, the “number of sows in heats, WOI 3 days” value [3] was 2 and the “number of sows in heats, WOI 4 days” value [3] was 13. The “number of sows in heats, WOI 5 days” value [3] was 10, the “number of sows in heats, WOI 6 days” value [3] was 5 and the “number of sows in heats, WOI 7 days” value [3] was 0.
